Where two headings read alike, the source gives them in different places.
Columns and labels:
[1] = system: MCF-7 cells (with PI3Kα E545K mutation); test: In vitro inhibition of MCF-7 cell proliferation (CellTiter-Lumi); type: cell-based; conditions: Homo sapiens, MCF7, 144 h
Summary of the method: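 MCF-7 (PI3Kα E545K) seeded at 2000 cells/well; serially diluted compounds added next day and exposed for 144 h. Cellular ATP read by CellTiter-Lumi luminescence; IC50 for growth inhibition calculated.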

[2] = system: HCC1954 cells (with PI3Kα H1047R mutation); test: In vitro inhibition of HCC1954 cell proliferation (CellTiter-Lumi); type: cell-based; conditions: Homo sapiens, HCC1954, 144 h, HCC1954 cells, 144 h, CellTiter-Lumi
Protocol: Assay for In Vitro Inhibition of HCC1954 Cell Proliferation by Compounds of the Present Disclosure
The growth of the cells was evaluated, and the IC50 for the inhibition of cell growth by the compounds was calculated.

[3] = class symbols, read-out: Inhibitory activity against MCF-7 cells (IC50), class symbols
[4] = class symbols, read-out: Inhibitory activity against HCC1954 cells (IC50), class symbols
[5] = numeric values, read-out: Inhibitory activity against MCF-7 cells (IC50)
[6] = numeric values, read-out: Inhibitory activity against HCC1954 cells (IC50)

| SMILES | IC50 [1, 3] | IC50 [2, 4] | IC50 [1, 5] | IC50 [2, 6] |
| --- | --- | --- | --- | --- |
| Cc1nc(-c2cn3c(n2)-c2cc(N4CCN(C5CN(c6ccc(NC(=O)C(C#N)=CC(C)(C)N)cc6)C5)CC4)ccc2OCC3)n(C(C)C)n1 [Compound 336] | < 50 nM | < 50 nM |  |  |
| CC(C)(C=C(C#N)C(=O)Nc1ncc(N2CC(N3CCN(c4ccc5c(c4)-c4nc(N6C(=O)OC[C@H]6C(F)F)cn4CCO5)CC3)C2)cn1)NC1COC1 [Compound 293] | < 50 nM | < 50 nM |  |  |
| CC(=O)NC(C)(C)C=C(C#N)C(=O)Nc1ccc(N2CC(N3CCN(c4ccc5c(c4)-c4nc(N6C(=O)OC[C@H]6C(F)F)cn4CCO5)CC3)C2)cc1Cl [Compound 366] | < 50 nM | < 50 nM |  |  |
| CC(C)(C=C(C#N)C(=O)Nc1ccc(N2CC(N3CCN(c4ccc5c(c4)-c4nc(N6C(=O)OC[C@H]6C(F)F)cn4CCO5)CC3)C2)c(Cl)c1)NC1(C)COC1 [Compound 385] | < 50 nM | < 50 nM |  |  |
| CC=C(C#N)C(=O)Nc1cnc(N2CC(N3CCN(c4ccc5c(c4)-c4nc(N6C(=O)OC[C@H]6C(F)F)cn4CCO5)CC3)C2)nc1 [Compound 272] | < 50 nM | < 50 nM |  |  |
| CC(C)(C=C(C#N)C(=O)Nc1ccc(N2CC(N3CCN(c4ccc5c(c4)-c4nc(N6C(=O)OC[C@H]6C(F)F)cn4CCO5)CC3)C2)cc1Cl)N1CCC1 [Compound 363] | < 50 nM | < 50 nM |  |  |
| C=CC(=O)N1CCc2nc(N3CC(N4CCN(c5ccc6c(c5)-c5nc(N7C(=O)OC[C@H]7C(F)F)cn5CCO6)CC4)C3)ccc21 [Compound 169] |  |  | 0.1 nM | 1 nM |
| CC(C)(C)C=C(C#N)C(=O)Nc1ccc(N2CC(N3CCN(c4ccc5c(c4)-c4nc(N6C(=O)OC[C@H]6C(F)F)cn4CCO5)CC3)C2)c(Cl)c1 [Compound 355] | < 50 nM | < 50 nM |  |  |
| C=CC(=O)N1CCC(CCC(=O)N2CCN(c3ccc4c(c3)-c3nc(N5C(=O)OC[C@H]5C(F)F)cn3CCO4)CC2)CC1 [Compound 7] |  |  | 106 nM | 925 nM |
| CC(C)(C=C(C#N)C(=O)Nc1ccc(N2CC(N3CCN(c4ccc5c(c4)-c4nc(N6C(=O)OC[C@H]6C(F)F)cn4CCO5)CC3)C2)cc1)NCOP(=O)(OCOC(=O)C(C)(C)C)OCOC(=O)C(C)(C)C [Compound 333] | < 50 nM | < 50 nM |  |  |
| CNC1(C=C(C#N)C(=O)Nc2ccc(N3CC(N4CCN(c5ccc6c(c5)-c5nc(N7C(=O)OC[C@H]7C(F)F)cn5CCO6)CC4)C3)nc2)CC1 [Compound 255] | < 50 nM | < 50 nM |  |  |
| C=CC(=O)N1CC(N2CC[C@H](CN3CCN(c4ccc5c(c4)-c4nc(N6C(=O)OC[C@H]6C(F)F)cn4CCO5)CC3)C2)C1 [Compound 92] |  |  | 20 nM | 200 nM |
| CC(C)(C=C(C#N)C(=O)Nc1ccc(N2CC(N3CCN(c4ccc5c(c4)-c4nc(N6C(=O)OC[C@H]6C(F)F)cn4CCO5)CC3)C2)cc1)OCOP(=O)(OCOC(=O)C(C)(C)C)OCOC(=O)C(C)(C)C [Compound 343] | < 50 nM | < 50 nM |  |  |
| CC(C)(C)C=C(C#N)C(=O)Nc1ccc(N2CC(N3CCN(c4ccc5c(c4)-c4nc(N6C(=O)OC[C@H]6C(F)F)cn4CCO5)CC3)C2)nc1 [Compound 241] | < 50 nM | < 50 nM |  |  |
| CC(C)n1ncnc1-c1cn2c(n1)-c1cc(N3CCN(C4CN(c5ccc(NC(=O)C(C#N)=CC(C)(C)C)cn5)C4)CC3)ccc1OCC2 [Compound 371] | < 50 nM | < 50 nM |  |  |
| CC(=O)N1CCN(C(C)(C)C=C(C#N)C(=O)Nc2ccc(N3CC(N4CCN(c5ccc6c(c5)-c5nc(N7C(=O)OC[C@H]7C(F)F)cn5CCO6)CC4)C3)cc2)CC1 [Compound 310] | < 50 nM | < 50 nM |  |  |
| CC(C)(C=C(C#N)C(=O)Nc1ccc(N2CC(N3CCN(c4ccc5c(c4)-c4nc(N6C(=O)OC[C@H]6C(F)F)cn4CCO5)CC3)C2)c(Cl)c1)N1CCC1 [Compound 354] | < 50 nM | < 50 nM |  |  |
| CC(C)(C=C(C#N)C(=O)Nc1ccc(N2CC(N3CCN(c4ccc5c(c4)-c4nc(N6C(=O)OC[C@H]6C(F)F)cn4CCO5)CC3)C2)nn1)NC1COC1 [Compound 296] | < 50 nM | < 50 nM |  |  |
| CC(=O)NC(C)(C)C=C(C#N)C(=O)Nc1ccc(N2CC(N3CCN(c4ccc5c(c4)-c4nc(N6C(=O)OC[C@H]6C(F)F)cn4CCO5)CC3)C2)c(Cl)c1 [Compound 357] | < 50 nM | < 50 nM |  |  |
| Cc1nc(NC(=O)N2CCC[C@H]2C(N)=O)sc1-c1ccnc(C(C)(C)C(F)(F)F)c1 [Alpelisib, reference compound] |  |  | 216 nM | 1610 nM |
| C=CC(=O)N1CCN(CCCCN2CCN(c3ccc4c(c3)-c3nc(N5C(=O)OC[C@H]5C(F)F)cn3CCO4)CC2)CC1 [Compound 26] |  |  | 83 nM | 248 nM |
| C=CC(=O)N1CCc2cc(N3CC(N4CCN(c5ccc6c(c5)-c5nc(N7C(=O)OC[C@H]7C(F)F)cn5CCO6)CC4)C3)cnc21 [Compound 167] |  |  | 219 nM | 544 nM |
| CC(C)(C)C=C(C#N)C(=O)Nc1ccc(N2CC(N3CCN(c4cc5c(cc4O)OCCn4cc(N6C(=O)OC[C@H]6C(F)F)nc4-5)CC3)C2)cc1 [Compound 317] | < 50 nM | < 50 nM |  |  |

Continued, values first:

| IC50 [1, 3] | IC50 [2, 4] | IC50 [1, 5] | IC50 [2, 6] | SMILES |
| --- | --- | --- | --- | --- |
| < 50 nM | < 50 nM |  |  | CC(C)(C=C(C#N)C(=O)Nc1ccc(N2CC(N3CCN(c4ccc5c(c4)-c4nc(N6C(=O)OC[C@H]6C(F)F)cn4CCO5)CC3)C2)cc1)NCOC(=O)C(C)(C)C [Compound 329] |
|  |  | 25 nM | 68 nM | C=CC(=O)Nc1ccc(N2CC3(CCN(c4ccc5c(c4)-c4nc(N6C(=O)OC[C@H]6C(F)F)cn4CCO5)CC3)C2)cc1 [Compound 18] |
|  |  | 2.7 nM | 9 nM | C=CC(=O)Nc1ccc(N2CC(N3CCN(c4ccc5c(c4)-c4nc(N6C(=O)OC[C@H]6C(F)F)cn4CCO5)CC3)C2)cc1F [Compound 124] |
|  |  | 88 nM | 303 nM | C=CC(=O)Nc1ccc(N2CC[C@@H](CN3CCN(c4ccc5c(c4)-c4nc(N6C(=O)OC[C@H]6C(F)F)cn4CCO5)CC3)C2)cc1 [Compound 85] |
| < 50 nM | < 50 nM |  |  | N#CC(=CC1CCCN1)C(=O)Nc1ccc(N2CC(N3CCN(c4ccc5c(c4)-c4nc(N6C(=O)OC[C@H]6C(F)F)cn4CCO5)CC3)C2)cc1 (some centres unmarked) [Compound 214] |
| < 50 nM | < 50 nM |  |  | N#CC(=CC1(N)CC1)C(=O)Nc1ccc(N2CC(N3CCN(c4ccc5c(c4)-c4nc(N6C(=O)OC[C@H]6C(F)F)cn4CCO5)CC3)C2)nc1 [Compound 253] |
|  |  | 11 nM | 53 nM | C=C(F)C(=O)Nc1ccc(N2CC(N3CCN(c4ccc5c(c4)-c4nc(N6C(=O)OC[C@H]6C(F)F)cn4CCO5)CC3)C2)cc1 [Compound 99] |
|  |  | 7 nM | 63 nM | C=CC(=O)Nc1ccc(CCN2CCN(c3ccc4c(c3)-c3nc(N5C(=O)OC[C@H]5C(F)F)cn3CCO4)CC2)cc1 [Compound 16] |
|  |  | 38 nM | 83 nM | C/C=C/C(=O)Nc1ccc(N2CC(N3CCN(c4ccc5c(c4)-c4nc(N6C(=O)OC[C@H]6C(F)F)cn4CCO5)CC3)C2)cc1 [Compound 101] |
| < 50 nM | 50 to 100 nM |  |  | C=CC(=O)Nc1ccc(N2CC(C#Cc3ccc4c(c3)-c3nc(N5C(=O)OC[C@H]5C(F)F)cn3CCO4)C2)cc1 [Compound 203] |
|  |  | 0.4 nM | 3.4 nM | C=CC(=O)Nc1ncc(N2CC(N3CCN(c4ccc5c(c4)-c4nc(N6C(=O)OC[C@H]6C(F)F)cn4CCO5)CC3)C2)cn1 [Compound 162] |
|  |  | 34 nM | 162 nM | C=CC(=O)Nc1ccc(CN2CC3(C2)CN(c2ccc4c(c2)-c2nc(N5C(=O)OC[C@H]5C(F)F)cn2CCO4)C3)cc1 [Compound 40] |
|  |  | 0.2 nM | 3.4 nM | C=CC(=O)Nc1ccc(N2CC(N3CCN(c4ccc5c(c4)-c4nc(N6C(=O)OC[C@H]6C(F)F)cn4CCO5)CC3)C2)c(OC)c1 [Compound 280] |
| < 50 nM | 50 to 100 nM |  |  | C=CC(=O)Nc1ccc(N2CCC(C#Cc3ccc4c(c3)-c3nc(N5C(=O)OC[C@H]5C(F)F)cn3CCO4)CC2)cc1 [Compound 202] |
| < 50 nM | 50 to 100 nM |  |  | C=CC(=O)Nc1ccc(C2CN(c3ccc(-c4ccc5c(c4)-c4nc(N6C(=O)OC[C@H]6C(F)F)cn4CCO5)cc3)C2)cc1 [Compound 181] |
| < 50 nM | < 50 nM |  |  | COC1(C=C(C#N)C(=O)Nc2ccc(N3CC(N4CCN(c5ccc6c(c5)-c5nc(N7C(=O)OC[C@H]7C(F)F)cn5CCO6)CC4)C3)cc2)CC1 [Compound 282] |
| < 50 nM | < 50 nM |  |  | CC(C)(C=C(C#N)C(=O)Nc1ccc(N2CC(N3CCN(c4ccc5c(c4)-c4nc(N6C(=O)OC[C@H]6C(F)F)cn4CCO5)CC3)C2)cc1)NS(C)(=O)=O [Compound 327] |
